Measured values as given in patent publication US20070099877A1, “N-aryl-thienopyrimidin-4-amines and analogs as activators of caspases and inducers of apoptosis and the use thereof” (Cytovia, Inc., priority 2005, published 2007).
Structures can show the parent of a compound that is named as a salt. Where two headings read alike, the source gives them in different places.

Columns and labels:
Type in all cases: cell-based
[1] = test system: human breast cancer cell line T-47D; assay: Caspase cascade activation (DEVD-R110 fluorogenic substrate) in T-47D cells; details: Homo sapiens, T47D
Method in brief: (§1)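 Cells were exposed to compound at 0.016 to 10 μM final for 24 h or 48 h at 37 °C. They were then lysed with 14 μM N-(Ac-DEVD)-N′-ethoxycarbonyl-R110 in lysolecithin/DTT/PIPES buffer pH 7.2 for 3 h at room temperature (ex 485/em 530 nm). EC50 came from a sigmoidal fit of net RFU relative to untreated control.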

[2] = test system: human hepatocellular carcinoma cell line SNU398; assay: Caspase cascade activation in SNU398 cells; details: Homo sapiens, SNU-398, 48 h, read-out: Caspase activation Potency EC50 SNU398 (48 h)
Method in brief: as §1

[3] = test system: human breast cancer cell line T-47D; assay: Inhibition of cell proliferation (GI50, CellTiter-Glo) in T-47D cells; details: T47D cells
Description: (§2) Human breast cancer cell lines T-47D, MX-1 and MDAMB435, human colon cancer cell line HT29, and human lung cancer cell line H1299 were grown and harvested as in Example 75. An aliquot of […] of cells (4.4×10^4 cells/mL) was added to a well of a 96-well microtiter plate containing 5 μL of a 10% DMSO in RPMI-1640 media solution containing 10 nM to 100 μM of N-(2,5-dimethoxyphenyl)-2-methylthieno[3,2-d]pyrimidin-4-amine (1 nM to 10 μM final). An aliquot of 45 μL of cells was added to a well of a 96-well microtiter plate containing 5 μL of a 10% DMSO in RPMI-1640 media solution without compound as the control sample for maximal cell proliferation (Lmax). The samples were mixed by agitation and then incubated at 37° C. for 48 h in a 5% CO2-95% humidity incubator. After incubation, the samples were removed from the incubator and 25 μL of CellTiter-Glo™ reagent (Promega) was added. The samples were mixed by agitation and incubated at room temperature for 10-15 min. Plates were then read using a luminescent plate reader (Model SPECTRAfluor Plus, Tecan) to give Ltest values.
(§3) Baseline for GI50 (dose for 50% inhibition of cell proliferation) of initial cell numbers was determined by adding an aliquot of 45 μL of cells or 45 μL of media, respectively, to wells of a 96-well microtiter plate containing 5 μL of a 10% DMSO in RPMI-1640 media solution. The samples were mixed by agitation and then incubated at 37° C. for 0.5 h in a 5% CO2-95% humidity incubator. After incubation, the samples were removed from the incubator and 25 μL of CellTiter-Glo™ reagent (Promega) was added. The samples were mixed by agitation and incubated at 37° C. for 10-15 min at room temperature in a 5% CO2-95% humidity incubator. Fluorescence was read as above, (LStart) defining luminescence for initial cell number used as baseline in GI50 determinations.
(§4) GI50 (dose for 50% inhibition of cell proliferation) is the concentration where [(LTest−Lstart)/(LMax−Lstart)]=0.5.

[4] = test system: human breast cancer cell line MX-1; assay: Inhibition of cell proliferation (GI50) in MX-1 cells; details: MX1 cells
Description: as §2, §3, §4

[5] = test system: human breast cancer cell line MDAMB435; assay: Inhibition of cell proliferation (GI50) in MDAMB435 cells
Description: as §2, §3, §4

[6] = test system: human hepatocellular carcinoma cell line SNU398; assay: Inhibition of cell proliferation (GI50) in SNU398 cells; details: SNU-398, Table IV, read-out: GI50 in Multi-Cancer Cells SNU398
Description: as §2, §3, §4
(§5) Several compounds were tested in multi cancer cell lines, including human breast cancer cell lines T-47D, MX-1, SKBR3 and MDAMB435, human hepatocellular carcinoma cell line SNU398, human colon carcinoma cell line HCT116, human sarcoma cell line MES-SA and multi-drug resistant (MDR) human sarcoma cell line MES-SA/ADR, murine leukemia cell line P388 and multi-drug resistant (MDR) murine leukemia cell line P388ADR, and the data are summarized in Table IV.

[7] = test system: human colon carcinoma cell line HCT116; assay: Inhibition of cell proliferation (GI50) in HCT116 cells; details: HCT-116, Table IV, read-out: GI50 in Multi-Cancer Cells HCT116
Description: as §2, §3, §4, §5

[8] = test system: multi-drug resistant (MDR) human sarcoma cell line MES-SA/ADR; assay: Inhibition of cell proliferation (GI50) in MES-SA/ADR cells; details: Table IV, read-out: GI50 in Multi-Cancer Cells MES-SA/ADR
Description: as §2, §3, §4, §5

[9] = 24 h, T47D cells, 24 h, read-out: Caspase activation Potency EC50 T47D (24 h)
[10] = 48 h, T-47D cells, 48 h, read-out: Caspase activation Potency EC50 T-47D (48 h)
[11] = Table IV, read-out: GI50 in Multi-Cancer Cells T47D
[12] = Table IV, read-out: GI50 in Multi-Cancer Cells MX1
[13] = MDA-MB-435, Table IV, read-out: GI50 in Multi-Cancer Cells MDAMB435

EC50 [1, 9]	EC50 [1, 10]	EC50 [2]	GI50 ([3]; Table III, 48 h, read-out: GI50 in Cancer Cells T47D)	GI50 [3, 11]	GI50 ([4]; Table III, 48 h, read-out: GI50 in Cancer Cells MX1)	GI50 [4, 12]	GI50 ([5]; MDA-MB-435, Table III, 48 h, read-out: GI50 in Cancer Cells MDAMB435)	GI50 [5, 13]	GI50 [6]	GI50 [7]	GI50 [8]	SMILES
61 nM	105 nM	1610 nM	65 nM	340 nM	300 nM	800 nM	756 nM	1070 nM	2100 nM	4980 nM	7260 nM	COc1ccc(OC)c(Nc2ncnc3ccsc23)c1 [Example 2, N-(2,5-Dimethoxyphenyl)thieno[3,2-d]pyrimidin-4-amine]
38 nM	62 nM	249 nM	–	20 nM	–	17 nM	–	105 nM	706 nM	1250 nM	1200 nM	COc1cc(Nc2ncnc3ccsc23)cc(OC)c1 [Example 12, N-(3,5-Dimethoxyphenyl)thieno[3,2-d]pyrimidin-4-amine hydrochloride]
